# Measurements reported in patent publication US11229649B2, “Methods for treating cryptosporidiosis using triazolopyridazines” (University of Vermont and State Agricultural College, priority 2015, dated 2022).
# Entries after “also recorded” stand apart in the source; their conditions may differ. Read-outs that look alike come from different tables or passages of the source.
# How the values were obtained:
# [1] = Mouse plasma concentration, single oral dose and simulated BID dosing; assay type: in vivo
# Protocol: Compounds were dosed as indicated either orally by oral gavage or intravenously, and serum samples were collected at the indicated time points. The MMV665917 plasma concentration was measured by LC-MS/MS.
# (§1) Mouse serum concentrations measured from a single 55 mg/kg oral dose of MMV665917 (see above figure) were used to simulate the mouse serum concentrations following BID dosing of either 30 mg/kg or 60 mg/kg. The measured calf plasma concentration following a single 22 mg/kg oral dose is also shown. Note that a minimum concentration of EC90 was required for parasite elimination in vitro, and the rate of parasite elimination in vitro was maximized at 3× the EC90 concentration.
# as §1, with “The actual and simulated mouse and calf plasma concentrations for MMV665917, correlated to the EC90 and 3×EC90 concentrations are shown in FIG. 9. Mouse” for “Mouse”, “(FIG. 9)” for “(see above figure)”
# [2] = In vitro plasma/blood stability and whole blood-to-plasma ratio; assay type: in vitro ADME, rat; conditions: 37° C.
# Protocol: In Vitro Determination of Plasma/Blood Stability and Whole Blood-to-Plasma Ratio. MMV665917 was spiked into fresh heparinized whole blood (collected from male Sprague Dawley rats) or plasma of a corresponding volume (which acted as a matrix control) to an initial nominal concentration of 500 ng/mL. As a whole blood assay for the compound was not available, the concentration of MMV665917 in the spiked plasma (i.e. matrix control) was used as a surrogate measurement of the spiked whole blood concentration. Whole blood samples were incubated at 37° C. for up to 240 min after which plasma and erythrocytes were separated by centrifugation prior to determination of plasma concentrations by LC-MS. Whole blood-to-plasma partitioning ratios (B/P) were obtained by dividing the measured concentration in the plasma control sample by the concentration measured in plasma following centrifugation of whole blood.
# C. parvum Iowa strain = test: Static or cidal assay: C. parvum persistence in HCT-8 cells at multiples of the EC90; assay type: cell-based, Cryptosporidium parvum; conditions: compound added 24 hours after infection of HCT-8 cells (FIG. 7)
# Protocol: HCT-8 cell monolayers are infected and parasites are allowed to replicate for 24 hours before addition of experimental drug compounds. Parasite numbers are then measured at different time points following compound addition by epifluorescence microscopy, using the same method as used in FIG. 1.
# To assess if MMV665917 is cidal or static for C. parvum and determine the concentration of compound required to maximize the rate of parasite elimination, C. parvum persistence in HCT-8 colonic carcinoma cells was assayed in the presence of increasing multiples of the in vitro EC90. Briefly, the assay infects HCT-8 intestinal epithelial cells with the C. parvum Iowa strain as in Example 1. Parasites are then allowed to develop for 24 hours prior to the addition of the indicated concentration of experimental compounds (time 0 in the graphs above). At the indicated times following compound addition, samples are then fixed, the host cells and parasites are fluorescently stained, and parasites are enumerated by automated epifluorescence microscopy and image process as described in Example 1.
# C. parvum (Iowa strain) = test: NOD SCID gamma immunocompromised mouse model of cryptosporidiosis (fecal oocyst shedding by qPCR); assay type: in vivo, Cryptosporidium parvum
# Source text: A NOD SCID gamma mouse model was used for in vivo testing of confirmed screening hits. NOD SCID gamma mice (Jackson Laboratories) develop Cryptosporidium parvum infection following oral gavage that is characterized by persistent infection of the small intestinal and cecal epithelium. The mice remain asymptomatic and gain weight normally. Infection is established by oral gavage of 1×10^4 C. parvum (Iowa strain) oocysts on day −6. Fecal parasite shedding is quantified by quantitative PCR of genomic DNA, using a standard curve generated by spiking oocysts into fecal samples from uninfected mice. Fecal oocyst shedding reliably becomes detectable at day 1 (1 week after infection). Experimental compounds are administered by oral gavage of 30 mg/kg in DMSO:1% HPMC (5:95) twice daily for 4 days. Parasite shedding is compared to that for infected mice treated with drug carrier alone (i.e. DMSO:1% HPMC (5:95)).
# Results for treatment of C. parvum infected NOD SCID gamma mice with DMSO or selected MMV Malaria Box screening hits with confirmed in vitro activity given by oral gavage of 30 mg/kg twice daily on days 1-4 can be seen in FIG. 2. Cryptosporidium parvum infection was established on day −6. Parasite shedding is detectable in all animals on day 1. […] Other compounds and DMSO had no effect. Data shown are the mean and SE for parasites detected/mg of feces (n=4 animals per treatment group).
# A repeat of the experiment presented in FIG. 2 showing efficacy of MMV665917 in the NOD SCID gamma mouse model is presented in FIG. 5. […] For this experiment, NOD SCID gamma mice were infected on day −6 by oral gavage of C. parvum oocysts, shedding was detected at day 0 prior to compound dosing, compounds or vehicle were dosed on days 0-6 as indicated, and mice were maintained for one week following cessation of treatment. Data shown are the mean and SE for the number of oocysts/mg stool detected by real time PCR of the feces on the indicated day (four mice per experimental group).
# [3] = Pharmacokinetics in male Sprague Dawley rats (IV and oral); assay type: in vivo, rat
# Protocol: The pharmacokinetics of MMV665917 were studied in overnight-fasted male Sprague Dawley rats that had access to water ad libitum throughout the pre- and post-dose sampling period, and access to food was re-instated 4 h (hour) post-dose. MMV665917 was administered intravenously as a 10 min (minute) constant rate infusion via an indwelling jugular vein cannula (1 mL per rat, n=2 rats) and orally by gavage (10 mL/kg per rat, n=2 rats). Samples of arterial blood and total urine were collected up to 24 h post-dose. Arterial blood was collected directly into borosilicate vials (at 4° C.) containing heparin, Complete® (a protease inhibitor cocktail), potassium fluoride, and EDTA to minimise potential for ex vivo degradation of test compound in blood/plasma samples. Once collected, blood samples were centrifuged, supernatant plasma was removed and stored frozen (−20° C.) until analysis by LC-MS. IV Formulation. MMV665917 was dissolved in propylene glycol and ethanol before Milli-Q water was added producing a clear solution. The formulation was filtered through a 0.22 μm syringe filter prior to dosing, and the measured concentration of compound the filtered solution was 0.24 mg/mL. Oral Formulation. MMV665917 was wet milled in HPMC-SV in an agate mortar and sonicated for 10 minutes producing a uniform suspension. The bulk formulation was mixed by inverting the tubes prior to drawing each dosing volume and the average measured concentration of compound in aliquots (n=3) of formulation was 0.32 mg/mL (range 0.28-0.37 mg/mL).
# Cryptosporidium = conditions: cited from earlier work
# C. parvum = C. parvum growth inhibition in HCT-8 cells, in vitro dose response (immunofluorescence); assay type: cell-based; conditions: Cryptosporidium parvum; C. parvum in HCT-8 cells; plate control of the screen; read-out: 90% inhibitory concentration (IC90)
# Protocol: Materials and Methods: Cell culture and Cryptosporidium infections: The high throughput screen for C. parvum growth inhibitors was carried out using human ileocecal adenocarcinoma (HCT-8) cells (ATCC) maintained in RPMI 1640 medium with HEPES, sodium pyruvate (1 mM) and L-glutamate with 10% horse serum (ATCC) supplemented with 120 U/mL penicillin and 120 μg/mL streptomycin. HCT-8 cells were grown to confluence in 384-well, tissue culture-treated, black-walled, clear-bottom microwell plates (BD Falcon). […]
# Infected monolayers were washed three times with PBS containing 111 mM D-galactose using an EL406 automated plate washer (Biotek), fixed with 4% paraformaldehyde, permeabilized with 0.25% Triton X-100 in PBS, and then blocked with 4% bovine serum albumin (BSA). Vegetative forms of C. parvum were detected by the addition of biotinylated Vicia villosa lectin (VVL; Vector Laboratories) and streptavidin-conjugated Alexa Fluor 568 (Invitrogen) diluted in PBS with 1% BSA and 0.1% Tween 20. […]
# ImageJ outputs were imported into Microsoft Excel for data organization and analysis. Percent inhibition was calculated (equation 1) for each well in order to normalize the data and to facilitate the combination of data from individual biological replicates. […]
# [4] = 30 mg/kg twice daily oral gavage, days 1-4 (FIG. 2)
structure (smiles),measurement,setting,value
O=C(Nc1ccc(Cl)cc1)N1CCN(c2ccc3nncn3n2)CC1 [MMV665917],intestinal absorption,[1]; mouse (FIG. 4),slow
same,serum half-life,[1]; mouse (FIG. 4),prolonged
same,systemic exposure,[1]; mouse (FIG. 4),moderate
same,plasma/serum concentration relative to the EC90 / 3×EC90,"[1]; mouse, 30 mg/kg BID, simulated from single 55 mg/kg oral dose",exceeds the EC90 for just over ½ the dosing interval; also recorded: not attained
same,time to peak serum concentration,"[1]; mouse, single dose (FIG. 4)",6 h
same,stability in rat plasma and whole blood,"[2]; up to 240 min, 500 ng/mL",stable
same,blood plasma ratio at 500 ng/mL,"[2]; male, Sprague Dawley, fresh heparinized whole blood, rat blood, read-out: apparent in vitro whole blood to plasma partitioning ratio (B/P)",1.1
same,static or cidal for C. parvum,C. parvum Iowa strain,cidal
same,efficacy across the two experiments,"C. parvum (Iowa strain); 30 mg/kg BID (effective in FIG. 2, ineffective in FIG. 5)",variable efficacy; also recorded: variably efficacious
same,parasite shedding (oocysts/mg feces),C. parvum (Iowa strain); [4],significantly reduced parasite shedding
same,persistence of reduced parasite shedding following cessation of treatment,C. parvum (Iowa strain); [4],> 3 days
same,"efficacy on C. parvum shedding, repeat experiment","C. parvum (Iowa strain); 30 mg/kg twice daily oral gavage, seven days (FIG. 5)",inactive; also recorded: not effective
same,"efficacy on C. parvum shedding, repeat experiment","C. parvum (Iowa strain); 60 mg/kg twice daily oral gavage, seven days (FIG. 5)",eliminated detection of C. parvum shedding in the feces; also recorded: cured; also recorded: curative
same,relapse over the week following cessation of treatment,"C. parvum (Iowa strain); 60 mg/kg twice daily, seven days (FIG. 5)",no relapse was observed
same,half-life,"[3]; male, Sprague Dawley, rat, plasma, 0.24 mg per rat, rats, IV administration, read-out: apparent terminal half-life",180 to 240 min
same,bioavailability,"[3]; male, Sprague Dawley, rat, plasma, po, 3.2 mg/kg, rats, oral administration, read-out: apparent oral bioavailability",24 to 43%
same,haemolysis in plasma,"[3]; rat, in vivo, iv",Evidence of haemolysis was observed
same,apparent volume of distribution,"[3]; rats, IV administration",moderate
same,in vivo clearance,"[3]; rats, IV administration",low
same,time plasma concentrations remained above the analytical LLQ,"[3]; rats, IV administration",16 h
same,fraction of the dose recovered in urine as intact compound,"[3]; rats, IV, 24 h sampling period",approximately 25%
same,adverse reactions or compound related side effects,"[3]; rats, following IV or oral administration",No adverse reactions or compound related side effects were observed
same,absorption,"[3]; rats, oral administration",slowly absorbed
same,apparent terminal half-life,"[3]; rats, oral administration",consistent with that observed after IV dosing
same,time of maximum plasma concentrations,"[3]; rats, oral administration",5 h post-dose
CC(=O)Oc1ccccc1C(=O)Nc1ncc([N+](=O)[O-])s1 [nitazoxanide],efficacy in cryptosporidiosis,Cryptosporidium; AIDS patients / immunocompromised people,lacks activity
same,efficacy in cryptosporidiosis,"Cryptosporidium; AIDS patients / immunocompromised people, listed as Nitazoxanide",no more effective than placebo
same,efficacy in cryptosporidiosis,Cryptosporidium; children,partial efficacy
same,IC90,C. parvum,6.6 µM
same,static or cidal for C. parvum,C. parvum Iowa strain,static
same,activity in the NOD SCID gamma mouse model,C. parvum (Iowa strain); dose not stated,lacks activity
"NC[C@@H]1O[C@H](O[C@H]2[C@@H](O)[C@H](O[C@@H]3[C@@H](O)[C@H](N)C[C@H](N)[C@H]3O[C@H]3O[C@H](CO)[C@@H](O)[C@H](O)[C@H]3N)O[C@@H]2CO)[C@H](N)[C@@H](O)[C@@H]1O [paromomycin, reference compound]",relapse after treatment cessation,"C. parvum (Iowa strain); 1000 mg/kg twice daily, positive control (FIG. 5)",relapsed quickly after treatment cessation
